Data set [1] deals with T1, human dopamine type 2 receptor (D2R) (Homo sapiens, UniProt P14416). The data set is described as follows: D2R receptor binding affinity. Conditions: internal Tiburio data. The text has this: Table 1. Receptor binding affinity and agonist activity at human dopamine type 2 and somatostatin type 2 | column: D2R binding, Ki nM
The target in data set [2] is T1, human dopamine type 2 receptor (D2R). The experiment in a line: D2R agonist activity, cAMP. Format: cell-based. Conditions: internal Tiburio data. As for the experimental part:
Table 1. Receptor binding affinity and agonist activity at human dopamine type 2 and somatostatin type 2 | column: D2R agonist activity cAMP, EC50 nM

In another data set the test system is residual NFPAs. Further details: method as in PMID 30540568. As to conditions: after 24 months, cited from earlier work.
Data set [3] can be described thus: Subcutaneous pharmacokinetics, plasma by HPLC-MS/MS. Format: in vivo. As to conditions: mouse, 4 mg/kg sc, POMC KO mice, n = 4. Here is the method: To study and compare the pharmacokinetic behavior of TBR-760, the DA analogue BIM-53097 and the SST analogue BIM-23023 solutions with appropriate concentrations were prepared as described earlier and mice were injected subcutaneously at time 0 with a dose of 4 mg/kg. Blood samples were collected at 15 and 30 minutes, and 1, 2, 4, 6, 8 and 24 hours after injection, and processed to obtain plasma. The determination of TBR-760, BIM-23023, or BIM-53097 was based on 100 μL plasma volume and was carried out by high-pressure liquid chromatography tandem mass spectrometry (HPLC-MS/MS) after protein precipitation with acetonitrile and subsequent solid-phase extraction. HPLC-MS/MS was performed on an AB SCIEX API 4000 LC-MS/MS with electrospray ionization operated in multiple-reaction monitoring mode for the analysis (Waters Corporation). Pharmacokinetic parameters were calculated by noncompartmental analyses using WinNonLin (version 5.2).

Data set [4] relates to NFPAs in heterozygous POMC KO mice. The data set is described as follows: Study 2: TBR-760 vs individual DA and SST agonists on pituitary tumor growth. Format: in vivo, mouse. The text has this: (§1) Wild-type mice (3 male, 3 female) at age 6 months were scanned by MRI to determine average normal pituitary size. Heterozygous POMC KO mice were screened using MRI starting at average age 6.5 months (range, 5.5-9.5 months). These screening scans served to select animals for the study once reaching the baseline tumor volume of 10 mm^3 and to ensure reasonably homogenous groups. Most animals developed tumors within an average of 1.5 months after their first scan and at that point were randomly assigned to experimental groups. Two studies were conducted, the first comparing several doses of TBR-760 vs vehicle, and a second study comparing a fully effective dose of TBR-760 vs the molar equivalent and the 10× molar equivalent (based on the dose of TBR-760) of a pure SST agonist (BIM-23023), a pure DA agonist (BIM-53097), and the combination of the two. The concentration of the DA agonist was doubled to reflect the 2:1 ratio of DA:SST moieties present in TBR-760.
(§2) All groups were composed of 3 males and 3 females, with the exception of the vehicle- and TBR-760-treated groups (n = 8, 4 males/4 females) of the second study, which were maintained for survival analysis as described later. Once entered into the study, all mice received MRI scans for baseline, followed by scans at 2 weeks, 1 month, and 2 months after the baseline scan. Once tumor volume reached 10 mm^3 in the heterozygous POMC KO mice, the mice were treated by daily subcutaneous injection, with each injection given at the same approximate time of day. The mice were euthanized 8 weeks after start of treatment (ie, after the last scan), and pituitary tissue was collected, weighed, and flash-frozen, with the exception of the TBR-760 and vehicle-treated groups in the second study, which were maintained for survival analysis.
(§3) All studies were conducted on a Bruker 7T/210 mm Biospec system (Bruker) at the Duke Center for In Vivo Microscopy. The initial screening scans, conducted at age 6 months in wild-type mice, and average age 6.5 months (range, 5.5-9.5 months) in heterozygous POMC KO mice, were fast scans with scan times of 4 minutes (rapid acquisition with refocused echoes [RARE], repetition time [TR] = 1 second, echo time [TE] = 50 ms; 100 μm × 100 μm × 0.4 mm). Images were analyzed in ImageJ ([36]). Treatment monitoring MRI scans were carried out at 2 weeks, 1 month, and 2 months after start of treatment. For all monitoring scans, parameters were 40-minute scan time (RARE; TR = 5 seconds, TE = 50 ms; 100 μm × 100 μm × 0.3 mm). All scans included complete sectional scans of the pituitary, which were used to calculate tumor volume. MR images were preprocessed using bias field correction to account for the sensitivity profile of the receive coil, thus enhancing the tumor contrast. A trained analyst then manually segmented the tumor on each slice of the MRI. Volume of the tumor was then calculated by multiplying the area of the segmentation by the slice thickness for each slice of the image.
To compare the ability of TBR-760 to arrest aggressive pituitary tumor growth in the POMC KO mouse model vs its individual SST or DA components, either alone or in combination, heterozygous POMC KO mice were again randomly assigned to treatment groups when they presented with tumors approximately 10 mm^3 in size as determined by MRI. […]

Data set [5] addresses T2, human somatostatin type 2 receptor (SSTR2) (Homo sapiens, UniProt P30874). The experiment in a line: SSTR2 agonist activity, cAMP. Type of data set: cell-based. Conditions: internal Tiburio data. Here is the method: Table 1. Receptor binding affinity and agonist activity at human dopamine type 2 and somatostatin type 2 | column: SSTR2 agonist activity cAMP, EC50 nM
In a further data set the target is SSTR4. Further details: method as in earlier work. Conditions: read-out: binding affinity for SSTR4; cited from earlier work.
Data set [6] concerns cultured human NFPA cells. Further details: method as in PMID 18509006. As to conditions: in vitro; cited from earlier work.
Data set [7] concerns NFPAs in heterozygous POMC KO mice. The data set is described as follows: Study 1: TBR-760 dose comparison on pituitary tumor growth (MRI volume, tumor weight). Format: in vivo, mouse. As to conditions: mean ± SEM; for tumor volume after 8 weeks of treatment: vehicle 72.5 ± 5.9; for tumor weight after 8 weeks of treatment: vehicle 36 ± 7.4.
Excerpt: as §1, §2, §3
At that time, treatment was initiated with daily subcutaneous injections of either vehicle or 0.125, 1.25, or 12.5 mg/kg of TBR-760 for 8 weeks. […] The dramatic difference in tumor growth between vehicle- and TBR-760–treated mice was further confirmed by visual comparison and measurement of weights of pituitaries on death of the mice (Fig. 7B and 7C).

Data set [8] deals with T2, human somatostatin type 2 receptor (SSTR2). The experiment in a line: SSTR2 receptor binding affinity. Conditions: internal Tiburio data. The text has this: Table 1. Receptor binding affinity and agonist activity at human dopamine type 2 and somatostatin type 2 | column: SSTR2 binding, Ki nM
The next data set concerns the target SSTR1. Further details: method as in earlier work. As to conditions: read-out: binding affinity for SSTR1; cited from earlier work.
For data set [9], the system named is NFPAs in heterozygous POMC KO mice. The data set is described as follows: Survival analysis of tumor-bearing mice. Format: in vivo, mouse. As to conditions: TBR-760 1 mg/kg/day, at euthanasia; vehicle 45.76 ± 6.28. The text has this: In the second study, the survival of TBR-760–treated mice was examined and compared with vehicle-treated mice. After the initial 8-week treatment period was complete, vehicle-treated mice were paired with TBR-760–treated mice, and treatment continued as before. When a vehicle-treated mouse died, its TBR-760-treated mouse partner continued to receive treatment for an additional 8 weeks before being euthanized. On death or euthanasia, pituitaries were collected, weighed, and flash-frozen.
Statistical analysis was performed using PRISM8 (GraphPad 2018). An ANOVA was performed followed by post hoc analysis with Dunnett’s multiple comparisons test. Results are expressed as mean ± SEM. P less than .05 was considered statistically significant. Survival analysis was performed using PRISM8 using the Gehan-Breslow-Wilcoxon test to compare the survival curves.

Data set [10] deals with T2, human somatostatin type 2 receptor (SSTR2). As to conditions: read-out: SSTR2 agonist activity cAMP, EC50; cited from earlier work.

Values joined by “and” are separate entries in the source; they are usually repeats but may differ in a detail not shown here. Equal values may be shown once. Read-outs that look alike come from different tables or passages of the source.

T2 sequence (P30874 whole entry): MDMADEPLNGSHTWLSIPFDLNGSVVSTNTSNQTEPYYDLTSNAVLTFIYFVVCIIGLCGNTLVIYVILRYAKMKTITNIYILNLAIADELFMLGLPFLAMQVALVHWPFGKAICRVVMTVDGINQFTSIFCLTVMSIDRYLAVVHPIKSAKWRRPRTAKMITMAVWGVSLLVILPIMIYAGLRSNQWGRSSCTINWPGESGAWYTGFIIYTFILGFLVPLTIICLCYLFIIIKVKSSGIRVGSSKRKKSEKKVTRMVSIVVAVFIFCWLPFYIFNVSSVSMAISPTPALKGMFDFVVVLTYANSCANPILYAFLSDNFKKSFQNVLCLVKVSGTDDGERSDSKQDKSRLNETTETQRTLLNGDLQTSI
T1 sequence (P14416 whole entry): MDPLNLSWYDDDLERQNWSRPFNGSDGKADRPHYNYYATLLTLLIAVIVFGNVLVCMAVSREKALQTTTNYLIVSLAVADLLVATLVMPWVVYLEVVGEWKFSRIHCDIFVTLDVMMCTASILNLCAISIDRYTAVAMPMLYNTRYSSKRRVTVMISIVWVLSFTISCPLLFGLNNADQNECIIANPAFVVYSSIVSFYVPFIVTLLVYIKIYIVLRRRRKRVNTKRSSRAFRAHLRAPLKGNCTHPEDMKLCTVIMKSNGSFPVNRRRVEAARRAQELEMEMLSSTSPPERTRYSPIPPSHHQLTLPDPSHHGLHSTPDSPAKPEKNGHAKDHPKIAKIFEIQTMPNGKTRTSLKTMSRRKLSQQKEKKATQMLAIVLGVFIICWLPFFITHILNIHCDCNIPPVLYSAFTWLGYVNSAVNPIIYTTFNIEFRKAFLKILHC

For `C=CCN1C[C@H](C(=O)N(CCCN(C)C)C(=O)NCC)C[C@@H]2c3cccc4[nH]cc(c34)C[C@H]21` [Cabergoline], the Ki in data set [1] was 0.8 nM. In addition, in data set [2], the EC50 (as a rule, the concentration giving half of the maximal effect) stood at 0.026 nM. Further, the “patients with significant tumor shrinkage” value with residual NFPAs (nonintervention group 10.5%) is listed as 28.8%. In addition, the “patients with tumor growth” value with residual NFPAs (nonintervention group 15.8%) is 5.1%. The “patients with stabilization of tumor” value in the data set with residual NFPAs (nonintervention group 73.7%) is 66.1%.
In the case of `CCCN1C[C@H](CSCC(=O)NCCCC[C@@H](NC(=O)CSC[C@@H]2C[C@@H]3c4cccc5[nH]cc(c45)C[C@H]3N(CCC)C2)C(=O)N[C@H]2CSSC[C@@H](C(=O)N[C@H](C(N)=O)[C@@H](C)O)NC(=O)[C@H](CC)NC(=O)[C@H](CCCCN)NC(=O)[C@@H](Cc3c[nH]c4ccccc34)NC(=O)[C@H](Cc3ccc(O)cc3)NC2=O)C[C@@H]2c3cccc4[nH]cc(c34)C[C@H]21` [TBR-760], the Ki in [1] was 12.1 nM; at SSTR4, greater than 1000 nM; in [8] it was 0.01 nM; at SSTR1 it was 843 nM. For the same compound, in [3], the AUC(0-inf) (as a rule, the area under the concentration-time curve extrapolated to infinity) is 1880 ng·h/mL. Further, the highest level in data set [3] (Cmax) was 354 ng/mL. The time to peak (Tmax) (commonly the time from dosing to the highest level) in data set [3] stood at 2 h. Moreover, in [3], the half-life (usually the time in which the quantity being followed falls by half) is 2.56 h. The “tumor volume after 8 weeks of treatment” value amounted to 8.5 ± 1.3 mm^3 in [4] (1 mg/kg/day sc, 8 weeks, mean ± SEM, vehicle 54.6 ± 10.6); 16.5 ± 2.6 mm^3 in data set [7] (0.125 mg/kg daily sc); 10.9 ± 1.1 mm^3 in [7] (1.25 mg/kg daily sc); 12.3 ± 1.0 mm^3 in data set [7] (12.5 mg/kg daily sc). The “proportion of treated mice with tumor shrinkage” value in data set [4] (TBR-760 1 mg/kg/day sc) is listed as 20%. For the same compound, the “mean tumor volume reduction in mice whose tumors shrank” value in data set [4] (TBR-760 1 mg/kg/day sc, 1 mg/kg/day) is 44.7% and 45%. For the same compound, the EC50 in data set [5] amounted to 1.22 nM; in [2], 0.064 nM. Also, the “proportion of NFPAs examined with significant inhibition of cell proliferation” value in data set [6] is listed as “approximately 60%”. The “tumor weight after 8 weeks of treatment” value came out at 5.4 ± 0.67 mg in data set [7] (0.125 mg/kg daily sc), 5.0 ± 0.61 mg in [7] (1.25 mg/kg daily sc) and 4.8 ± 0.61 mg in data set [7] (12.5 mg/kg daily sc). This compound displayed a final tumor weight in [9] of 5.42 ± 0.52 mg.
With `CC[C@@H]1NC(=O)[C@H](CCCCN)NC(=O)[C@@H](Cc2c[nH]c3ccccc23)NC(=O)[C@H](Cc2ccc(O)cc2)NC(=O)[C@@H](NC(=O)[C@H](N)Cc2ccccc2)CSSC[C@@H](C(=O)N[C@H](C(N)=O)[C@@H](C)O)NC1=O` [BIM-23023, reference compound], in [3], the AUC(0-inf) turned out to be 2860 ng·h/mL, the concentration peaked (Cmax) at 2300 ng/mL, the Tmax worked out at 0.25 h and the half-life is 0.59 h. In [4] (after 8 weeks of treatment), the “pituitary weight vs untreated, tumor-bearing controls” value was “not significantly different”. Besides, the “effect on tumor growth vs vehicle” value in data set [4] (either dose (1 or 10 mg/kg) daily sc, 8 weeks) is on record as “failed to show significant effects on tumor growth”. Moreover, the EC50 in data set [10] is 0.14 nM. For the same compound, on SSTR4, the Ki was greater than 1000 nM. For the same compound, at SSTR1, the Ki is greater than 1000 nM.
